Values joined by “and” are separate entries in the source; they are usually repeats but may differ in a detail not shown here. Equal entries are not always repeated.
Columns and labels:
[1] = target: T1, AMPK γ2 complex (dephosphorylated, FLAG-tagged human γ2) (Homo sapiens, UniProt Q13131+Q9UGJ0); assay: Promotion of LKB1-dependent activation and Thr172 phosphorylation; assay type: biochemical; settings: ADP 1 mM, 5 mM ATP
T1 construct: would have predominantly been the α1β2γ1, α1β2γ2 or α1β2γ3 complexes; expressed in transfected cells; host or cells: HEK-293 (Flp recombinase target site, tetracycline-inducible); anti-FLAG immunoprecipitate
T1 sequence (Q9UGJ0 whole entry): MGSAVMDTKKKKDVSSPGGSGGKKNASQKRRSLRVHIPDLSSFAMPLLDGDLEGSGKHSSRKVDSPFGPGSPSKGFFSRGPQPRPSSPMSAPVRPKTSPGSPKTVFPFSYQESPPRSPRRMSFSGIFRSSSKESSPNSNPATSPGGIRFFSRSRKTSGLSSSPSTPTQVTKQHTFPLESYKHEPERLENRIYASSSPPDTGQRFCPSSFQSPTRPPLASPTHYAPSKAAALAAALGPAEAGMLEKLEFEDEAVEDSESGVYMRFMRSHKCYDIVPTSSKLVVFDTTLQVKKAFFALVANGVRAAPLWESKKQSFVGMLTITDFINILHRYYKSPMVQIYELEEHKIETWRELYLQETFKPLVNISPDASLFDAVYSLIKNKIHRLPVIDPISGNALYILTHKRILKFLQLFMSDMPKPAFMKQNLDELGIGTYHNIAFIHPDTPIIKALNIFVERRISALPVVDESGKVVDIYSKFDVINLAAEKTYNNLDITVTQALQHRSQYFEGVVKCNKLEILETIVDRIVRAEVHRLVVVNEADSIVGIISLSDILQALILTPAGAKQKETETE
T1 sequence (Q13131 whole entry): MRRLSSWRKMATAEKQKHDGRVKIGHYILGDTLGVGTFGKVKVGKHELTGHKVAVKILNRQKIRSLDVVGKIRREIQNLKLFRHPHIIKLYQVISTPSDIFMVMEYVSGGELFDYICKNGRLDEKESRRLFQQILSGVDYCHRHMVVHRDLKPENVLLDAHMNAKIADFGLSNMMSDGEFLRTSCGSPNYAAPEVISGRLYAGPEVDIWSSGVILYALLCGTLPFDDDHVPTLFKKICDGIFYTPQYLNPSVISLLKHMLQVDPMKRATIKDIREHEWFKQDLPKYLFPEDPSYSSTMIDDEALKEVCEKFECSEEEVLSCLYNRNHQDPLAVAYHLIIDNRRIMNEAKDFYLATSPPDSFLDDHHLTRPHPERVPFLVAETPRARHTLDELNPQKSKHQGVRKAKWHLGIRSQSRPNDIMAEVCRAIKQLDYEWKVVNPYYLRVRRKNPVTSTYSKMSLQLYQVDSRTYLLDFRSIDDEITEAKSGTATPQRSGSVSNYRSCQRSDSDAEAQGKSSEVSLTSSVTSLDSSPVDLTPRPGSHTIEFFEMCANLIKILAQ
T1 sequence (O43741 whole entry partner): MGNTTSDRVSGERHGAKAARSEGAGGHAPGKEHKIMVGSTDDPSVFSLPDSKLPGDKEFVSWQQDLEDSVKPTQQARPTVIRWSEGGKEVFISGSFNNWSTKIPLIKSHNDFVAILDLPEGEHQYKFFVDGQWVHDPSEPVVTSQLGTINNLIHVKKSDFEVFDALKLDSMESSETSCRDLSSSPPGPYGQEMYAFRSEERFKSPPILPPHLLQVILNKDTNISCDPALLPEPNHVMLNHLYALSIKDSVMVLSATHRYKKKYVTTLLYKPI
Experimental: (§1) Cell lysates (140, 500 and 2000 μg of lysate protein for γ1, γ2 and γ3 respectively) were incubated with 100 μl of EZview Red anti-FLAG M2 affinity gel, immunoprecipitated and washed as described previously. The IPs were resuspended in 100 μl of Hepes assay buffer and incubated in an orbital incubator with PP1γ (55 μg in 10 μl) in Hepes assay buffer for 30 min at 30°C. The dephosphorylation reactions were stopped by washing the IPs three times in Hepes assay buffer. The precipitates were then resuspended in 1 ml of Hepes assay buffer and divided into 100-μl aliquots. After centrifugation, 75 μl of each supernatant was removed, 5 μl of okadaic acid (final concentration 25 μM) was added and incubation continued for 5 min at 30°C. After this, AMP or ADP and LKB1 were added as specified and the reaction started by adding a mixture of MgCl2 (final concentration 9.8 mM) and ATP (final concentration 5 mM). Incubation was for 10 min at 30°C, after which the reactions were stopped by washing the IPs three times in Hepes assay buffer. They were resuspended in 400 μl of assay buffer and split for assays and analysis by Western blotting.
(§2) We next tested whether AMP promoted Thr^172 phosphorylation by LKB1, using complexes containing γ1, γ2 or γ3 expressed in HEK-293 cells and isolated using anti-FLAG antibody. The IPs were treated with the protein phosphatase-1 catalytic subunit (PP1γ) to remove phosphate from Thr^172, were washed to remove PP1γ, and okadaic acid was added to block the activity of any residual phosphatase. They were then treated with limiting quantities of LKB1 in the presence of 5 mM ATP (to mimic physiological conditions), with or without 1 mM AMP.
(§3) Figure 5 Effect of AMP on activation and Thr^172 phosphorylation of AMPK-γ isoforms induced by upstream kinases (A) Effect of a limiting quantity of LKB1, with or without AMP (1 mM), on AMPK activity. Anti-FLAG IPs from AMPK-γ1-, -γ2- or -γ3-expressing cells were treated with PP1γ to bring about complete dephosphorylation of Thr^172. PP1γ was removed by washing and okadaic acid was added to ensure complete inhibition of any residual phosphatase. The IPs were then incubated for 10 min with 5 mM ATP with or without LKB1 (1 μg) and with or without 1 mM AMP. […] (B) Effect of different concentrations of AMP on activation and Thr^172 phosphorylation of the AMPK-γ1 complex. Experiment as in (A) except using various concentrations of AMP in the presence of 5 mM ATP. Results in the upper panel (means ± S.E.M., n=6) are expressed relative to the control without AMP. Results were fitted to the equation: Y=1+[(activation–1) × X]/(EC50+X), where Y is the relative activity, X is the concentration of AMP, activation is the predicted maximal activation, and EC50 is the concentration of AMP causing half-maximal activation. The continuous line is the curve generated using this equation with the parameters quoted in the text. […] (C) As (A), except that we also tested the effects of 1 mM AMP on activation by CaMKKβ as well as LKB1. The amount of CaMKKβ added (0.34 μg) yielded a similar limited degree of activation to LKB1.
(§4) Figure 6 Effect of ADP on activation and Thr^172 phosphorylation of AMPK-γ isoforms induced by upstream kinases (A) Effect of AMP or ADP on activation of γ1-, γ2- or γ3-containing AMPK complexes induced by LKB1 in the presence of 5 mM ATP. Dephosphorylated AMPK complexes were generated as in Figure 3(A) and were incubated for 10 min with LKB1 with or without AMP (300 μM), ADP (1 mM) or the 5′-nucleotidase CD73 (0.86 μg). […] (B) Duplicate blots from the experiment shown in (A). (C) Effect of ADP on activation of AMPK-γ1 complexes by LKB1 in the presence of 5 mM ATP. The experiment was performed as in (A) except with various concentrations of ADP. Results (means ± S.E.M., n=3) are expressed relative to the basal activity in the absence of ADP and were fitted to the equation used for Figure 3(B). […]

[2] = target: T2, AMPK γ1 complex (dephosphorylated, FLAG-tagged human γ1) (Homo sapiens, UniProt P54619+Q13131); assay: as above; assay type: biochemical; settings: 5 mM ATP
T2 construct: would have predominantly been the α1β2γ1, α1β2γ2 or α1β2γ3 complexes; expressed in transfected cells; host or cells: HEK-293 (Flp recombinase target site, tetracycline-inducible); anti-FLAG immunoprecipitate
T2 sequence (P54619 whole entry): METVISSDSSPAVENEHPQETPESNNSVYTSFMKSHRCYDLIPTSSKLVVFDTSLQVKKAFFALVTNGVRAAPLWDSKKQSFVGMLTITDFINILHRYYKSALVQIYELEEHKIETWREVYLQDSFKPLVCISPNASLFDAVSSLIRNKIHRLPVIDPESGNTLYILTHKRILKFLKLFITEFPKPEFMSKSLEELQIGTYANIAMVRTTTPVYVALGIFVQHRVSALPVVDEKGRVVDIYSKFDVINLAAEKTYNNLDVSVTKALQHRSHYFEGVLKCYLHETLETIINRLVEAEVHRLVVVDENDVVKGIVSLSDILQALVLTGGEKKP
T2 sequence (Q13131 whole entry): as the sequence (Q13131 whole entry) above
T2 sequence (O43741 whole entry partner): as the sequence (O43741 whole entry partner) above
Experimental: as §1, §2, §3, §4

[3] = target: T3, AMPK γ3 complex (dephosphorylated, FLAG-tagged human γ3) (Homo sapiens, UniProt Q13131+Q9UGI9); assay: as above; assay type: biochemical; settings: ADP 1 mM, 5 mM ATP
T3 construct: would have predominantly been the α1β2γ1, α1β2γ2 or α1β2γ3 complexes; expressed in transfected cells; host or cells: HEK-293 (Flp recombinase target site, tetracycline-inducible); anti-FLAG immunoprecipitate
T3 sequence (Q9UGI9 whole entry): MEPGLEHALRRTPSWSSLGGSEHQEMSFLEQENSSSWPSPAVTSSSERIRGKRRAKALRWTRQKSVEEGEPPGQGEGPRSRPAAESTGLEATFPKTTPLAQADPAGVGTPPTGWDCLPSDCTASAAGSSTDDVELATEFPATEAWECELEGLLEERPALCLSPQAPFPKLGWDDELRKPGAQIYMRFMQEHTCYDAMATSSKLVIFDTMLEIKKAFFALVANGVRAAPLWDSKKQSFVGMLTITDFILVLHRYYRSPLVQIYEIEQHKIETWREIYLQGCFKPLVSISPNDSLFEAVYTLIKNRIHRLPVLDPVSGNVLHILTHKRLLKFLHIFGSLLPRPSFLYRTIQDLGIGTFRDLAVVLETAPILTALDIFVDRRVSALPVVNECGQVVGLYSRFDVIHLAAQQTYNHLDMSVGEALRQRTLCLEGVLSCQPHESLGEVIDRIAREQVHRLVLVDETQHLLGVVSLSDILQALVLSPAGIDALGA
T3 sequence (Q13131 whole entry): as the sequence (Q13131 whole entry) above
T3 sequence (O43741 whole entry partner): as the sequence (O43741 whole entry partner) above
Experimental: as §1, §2, §3, §4

[4] = test system: AMPK γ1 complex (dephosphorylated, FLAG-tagged human γ1); assay: as above; assay type: biochemical; settings: 5 mM ATP, imprecise estimate, read-out: IC50 for the inhibitory effect on activation by LKB1
Experimental: as §1, §2, §3, §4

[5] = target: T4, AMPK γ3 complex (FLAG-tagged human γ3) (Homo sapiens, UniProt Q13131+Q9UGI9); assay: Protection against inactivation and Thr172 dephosphorylation by PP2Cα; assay type: biochemical; settings: 5 mM ATP, read-out: half-maximal effect for protection against inactivation by PP2Cα
T4 construct: would have predominantly been the α1β2γ1, α1β2γ2 or α1β2γ3 complexes; expressed in transfected cells; host or cells: HEK-293 (Flp recombinase target site, tetracycline-inducible); anti-FLAG immunoprecipitate
T4 sequence (Q9UGI9 whole entry): as the sequence (Q9UGI9 whole entry) above
T4 sequence (Q13131 whole entry): as the sequence (Q13131 whole entry) above
T4 sequence (O43741 whole entry partner): as the sequence (O43741 whole entry partner) above
Experimental: (§5) AMPK was activated by incubating the cells in phenformin (10 mM) for 60 min prior to cell lysis. Cell lysates (225, 225 and 455 μg of lysate protein for γ1, γ2 and γ3 respectively) were incubated with 100 μl of EZview Red anti-FLAG M2 affinity gel beads at 4°C for 2 h on a roller mixer. The beads were washed twice with 1 ml of immunoprecipitation buffer and twice with 1 ml of Hepes assay buffer, resuspended in 1 ml of assay buffer and divided into 100-μl aliquots. The beads were recovered by centrifugation and 75 μl of the supernatant removed. In a final volume of 50 μl, AMP, ADP (as specified), ATP (5 mM) and PP2Cα (1.5 μg) were added and the reaction was started by adding MgCl2 (9.8 mM) to activate PP2Cα; the reactions were then conducted in a shaking incubator at 30°C for 10 min. They were stopped by washing the beads three times in assay buffer, resuspending them in 400 μl of assay buffer and dividing them into aliquots for kinase assays and analysis by Western blotting.
(§6) Finally, we addressed the effects of AMP and ADP on the dephosphorylation of γ1, γ2 and γ3 complexes by the protein phosphatase PP2Cα. Cells expressing γ1, γ2 or γ3 complexes were treated with phenformin to promote Thr^172 phosphorylation, the complexes were then isolated by immunoprecipitation and equal amounts (based on anti-FLAG blots) were treated with a limiting quantity of PP2Cα in the presence of increasing concentrations of AMP or ADP. As before, in order to simulate physiological conditions, these assays were performed in the presence of 5 mM ATP. […] The similar effects of AMP on all three complexes were confirmed by Western blot analysis using anti-pThr^172 antibodies (lower panel). The effects of ADP are shown in Figure 7(B); similar to results previously obtained with rat liver AMPK [28]
(§7) Figure 7 Effect of AMP and ADP on protection against Thr^172 dephosphorylation, measured at 5 mM ATP (A) […], -γ2 or -γ3 complexes were immunoprecipitated from cells treated with phenformin to cause maximal Thr^172 phosphorylation. The IPs were then incubated for 10 min with the protein phosphatase PP2Cα in the presence of 5 mM ATP and various concentrations of AMP. Inactivation was assessed by kinase assays (top panel) and Thr^172 dephosphorylation by Western blot (bottom panels). Results (means ± S.E.M., n=2) in the top panel are shown as percentage protection, which is the inactivation compared with control (without AMP), expressed as a percentage of the inactivation compared with control at the highest concentration of AMP used. Results were fitted to the equation Y=100 × X/(EC50+X) where Y is the percentage protection, X is the concentration of AMP, and EC50 is the concentration of AMP causing half-maximal protection. The continuous lines are the curves generated using this equation using the best-fit parameters quoted in the text. […] (B) As (A), but varying ADP in place of AMP.

[6] = target: T5, AMPK γ2 complex (FLAG-tagged human γ2) (Homo sapiens, UniProt Q13131+Q9UGJ0); assay: as above; assay type: biochemical; settings: 5 mM ATP, read-out: half-maximal effect for protection against inactivation by PP2Cα
T5 construct: would have predominantly been the α1β2γ1, α1β2γ2 or α1β2γ3 complexes; expressed in transfected cells; host or cells: HEK-293 (Flp recombinase target site, tetracycline-inducible); anti-FLAG immunoprecipitate
T5 sequence (Q9UGJ0 whole entry): as the sequence (Q9UGJ0 whole entry) above
T5 sequence (Q13131 whole entry): as the sequence (Q13131 whole entry) above
T5 sequence (O43741 whole entry partner): as the sequence (O43741 whole entry partner) above
Experimental: as §5, §6, §7

[7] = target: T6, AMPK γ1 complex (FLAG-tagged human γ1) (Homo sapiens, UniProt P54619+Q13131); assay: as above; assay type: biochemical; settings: 5 mM ATP, read-out: half-maximal effect for protection against inactivation by PP2Cα
T6 construct: would have predominantly been the α1β2γ1, α1β2γ2 or α1β2γ3 complexes; expressed in transfected cells; host or cells: HEK-293 (Flp recombinase target site, tetracycline-inducible); anti-FLAG immunoprecipitate
T6 sequence (P54619 whole entry): as the sequence (P54619 whole entry) above
T6 sequence (Q13131 whole entry): as the sequence (Q13131 whole entry) above
T6 sequence (O43741 whole entry partner): as the sequence (O43741 whole entry partner) above
Experimental: as §5, §6, §7

[8] = test system: γ2-containing AMPK complexes in HEK-293 cells expressing FLAG–γ2; design: method as in PMID 25695398; settings: anti-FLAG IP; cited from earlier work
[9] = test system: γ1-containing AMPK complexes in mouse skeletal muscle; design: method as in PMID 25695398; settings: cited from earlier work
[10] = test system: γ3-containing AMPK complexes in mouse skeletal muscle; design: method as in PMID 25695398; settings: cited from earlier work
[11] = test system: γ3-containing AMPK complexes in HEK-293 cells expressing FLAG–γ3; design: method as in PMID 25695398; settings: anti-FLAG IP; cited from earlier work
[12] = test system: γ1-containing AMPK complexes in HEK-293 cells expressing FLAG–γ1; design: method as in PMID 25695398; settings: anti-FLAG IP; cited from earlier work
glucose uptake = test system: glucose uptake; design: method as in PMID 25695398; settings: mouse skeletal muscle; cited from earlier work

SMILES	effect on activation by LKB1 [1]	EC50 ([2]; imprecise estimate, read-out: EC50 for the activating effect on activation by LKB1)	stimulation of activation caused by Thr172 phosphorylation by LKB1 ([2]; ADP)	activation (best-fit, promotion of activation by LKB1) ([2]; various ADP, constrained to be 5-fold or less, confidence limits extremely wide)	effect on activation by LKB1 [3]	IC50 [4]	EC50 [5]	EC50 [6]	EC50 [7]	activation of complex in HEK-293 cells [8]	activation of γ1-containing complexes [9]	activation of γ3-containing complexes [10]	activation of complex in HEK-293 cells [11]	activation of complex in HEK-293 cells [12]	glucose uptake (glucose uptake)
Nc1ncnc2c1ncn2[C@@H]1O[C@H](COP(=O)(O)OP(=O)(O)O)[C@@H](O)[C@H]1O [ADP]	not significant	1800 µM and ≥ 1000 µM	~2 fold	5 fold	not significant	6800 ± 3100 µM	980 ± 150 µM	180 ± 20 µM	910 ± 70 µM	–	–	–	–	–	–
Cc1cc(-c2ccc(/C=C3/SC(=Nc4ccc(Cl)c(C(=O)O)c4)NC3=O)o2)c([N+](=O)[O-])cc1C [PT-1]	–	–	–	–	–	–	–	–	–	all three complexes were activated	activates	not	all three complexes were activated	all three complexes were activated	did not promote glucose uptake

— publication PMC4700476, “Differential regulation by AMP and ADP of AMPK complexes containing different γ subunit isoforms” (Biochemical Journal, 2016)
